Data: patent US20250145600A1, “2-((4-((S)-2-(4-CHLORO-2-FLUOROPHENYL)-2-METHYLBENZO[D][1,3]DIOXOL-4-YL)PIPERIDIN-1-YL)METHYL)-1-(((S)-OXETAN-2-YL)METHYL)-1H-IMIDAZOLE DERIVATIVES AS ACTIVATORS OF THE GLP1 RECEPTOR FOR THE TREATMENT OF OBESITY” (Novartis AG, priority 2022, published 2025)

Molecular target: human GLP1R (hGLP1R) (Homo sapiens, UniProt P43220)
Experiment: Human GLP1R cAMP agonist assay (GloSensor cAMP Assay)
Format: cell-based
Conditions: HEK293-SNAP-hGLP1R-GloSensor cells; for Emax: cAMP activity as percent of GLP1 (7-36) EC100 control; for EC50: intracellular cAMP, 12 min at rt
Method: Compounds of formula (I) according to the invention were tested in the following cellular assays that measure the intracellular cAMP concentration, beta-arrestin recruitment and receptor internalization. The cAMP is generated by the activation of GLP1R. The extent to which the GLP1R is internalized into the cell and away from the plasma membrane following activation is also shown in Table 2. EC50 for each assay is defined as the concentration of the compound that leads to half of the maximum response (after baseline correction). Emax is defined as the maximum response observed for the test compound, normalized to the maximum response observed for the endogenous ligand (GLP1(7-36)) to GLP1R.
Human GLP1R cAMP Agonist Assay
The agonist activity of compounds was determined using the GloSensor™ cAMP Assay (Promega Corp.), which measures changes in the intracellular concentration of cAMP after ligand activation of GPCRs. The assay uses a biosensor encoded by pGloSensor™-22F cAMP plasmid (Promega, cat #E2301) with cAMP binding domains fused to a mutant form of Photinus pyralis luciferase. Binding to cAMP causes conformational changes that promote large increases in light output, which can be measured by a luminescence detector. HEK293-SNAP-hGLP1R-GloSensor cells stably overexpressing the human GLP1 receptor (hGLP1R) and pGloSensor™-22F were seeded in white 384-well poly-D-Lysine coated plates (Greiner Bio One, cat #781945) in CO2-independent media (Gibco cat #18045-088 with 1.0% FBS, 2 mM L-glutamine, penicillin and streptomycin) and incubated overnight at 37° C., 5% CO2 with humidity. The assay was started the following morning by adding an equal volume of CO2-independent media containing 4% v/v dilution of the GloSensor substrate (Promega, cat #E1291) to all wells. The cell plate was incubated at rt for 2 h in the dark. The Biomek 7 (Beckman Coulter) instrument was used for the liquid handling steps. To generate duplicate dose response curves, 3-fold serially diluted compounds were added in to the cell assay plate to a final volume of 60 μL with final concentrations ranging from 30 μM through 0.06 μM in CO2-independent media containing 0.1% BSA, 0.5 mM IBMX and 0.4% DMSO. In the same plate and assay buffer as the tested compounds, were EC100 control wells containing GLP1 (7-36) peptide (Bachem, cat #H-6795) at a final concentration of 2 nM and also EC0 control wells containing no peptide. This plate was incubated at rt in the dark for 12 min after adding the compounds to the cells. Luminescence was then measured with an Envision 2104 Multilabel reader with “TRF Light Unit, 337 nm” (PerkinElmer) using the Ultra-Sensitive protocol setting “384-well US luminescence detector” with the 384-well luminescence aperture, 0.1 seconds per well. cAMP activity was calculated as percent of the GLP1 (7-36) EC100 control wells: [(sample signal−mean EC0 signal)/(mean EC100 of GLP1 (7-36) signal−mean EC0 signal)}*100. Curve fitting for EC50 determinations was performed in the Helios module of the software package DAVID. The 4-parameter logistic model, Hill slope was used: y=Ainf+(A0−Ainf)/(1+(x/AC50)^Hill Slope) where y is the functional response; x is the compound concentration; A0 is the minimum value (at 0 dose); Ainf is the maximum value (at infinite dose); AC50 corresponds to the point of inflection (i.e. the point on the sigmoid shaped curve halfway between A0 and Ainf). The EC50 value was represented by the AC50 value calculated from Helios in μM. Emax is the maximal activity detected within the concentration range, derived from the fitted curve.
327 μL of Opti-MEM medium (Gibco, cat #31985-062) were mixed with 12 μL of FuGENE® HD (Promega, cat #E2311) and incubated at rt for 5 min. Then 8.2 μL (4 μg, 0.485 μg/μL solution) of pSNAP-hGLP1R plasmid (Cisbio, cat #PSNAP-GLP1) encoding human GLP1R (NCBI Reference Sequence: NM_002062.3) fused with Cisbio's SNAP tag was added in to the Fugene HD/Opti-MEM mix, and incubated at rt for 20 min. […]

Sequence of human GLP1R (hGLP1R) (P43220 24-463): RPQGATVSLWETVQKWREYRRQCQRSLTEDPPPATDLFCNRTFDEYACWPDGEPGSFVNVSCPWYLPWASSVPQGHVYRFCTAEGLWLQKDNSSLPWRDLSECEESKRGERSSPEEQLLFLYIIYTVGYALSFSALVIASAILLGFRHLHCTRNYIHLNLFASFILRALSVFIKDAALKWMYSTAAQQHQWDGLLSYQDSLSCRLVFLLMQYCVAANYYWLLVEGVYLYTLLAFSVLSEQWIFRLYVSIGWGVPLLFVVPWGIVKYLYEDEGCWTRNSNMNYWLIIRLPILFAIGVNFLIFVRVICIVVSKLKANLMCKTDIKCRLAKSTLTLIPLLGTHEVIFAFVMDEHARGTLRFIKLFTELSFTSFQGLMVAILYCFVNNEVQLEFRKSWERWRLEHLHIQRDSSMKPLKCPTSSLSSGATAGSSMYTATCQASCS

Row | SMILES | Emax [%] | EC50 [nM]
1 | Cc1nc(CN2CCC(c3cccc4c3O[C@@](C)(c3ccc(Cl)cc3F)O4)CC2)n(C[C@H]2CCO2)c1-c1ncc(C(=O)O)o1 [Compound C-2, 2-(2-((4-((S)-2-(4-chloro-2-fluorophenyl)-2-methylbenzo[d][1,3]dioxol-4-yl)piperidin-1-yl)methyl)-4-methyl-1-(((R)-oxetan-2-yl)methyl)-1H-imidazol-5-yl)oxazole-5-carboxylic acid] | 108 | 0.149
2 | Cc1nc(CN2CCC(c3cccc4c3O[C@@](C)(c3ccc(Cl)cc3F)O4)CC2)n(C[C@H]2CCO2)c1-c1nc(C(=O)O)co1 [Compound C-3, 2-(2-((4-((S)-2-(4-chloro-2-fluorophenyl)-2-methylbenzo[d][1,3]dioxol-4-yl)piperidin-1-yl)methyl)-4-methyl-1-(((R)-oxetan-2-yl)methyl)-1H-imidazol-5-yl)oxazole-4-carboxylic acid] | 105 | 0.0484
3 | CCc1nc(CN2CCC(c3cccc4c3O[C@@](C)(c3ccc(Cl)cc3F)O4)CC2)n(C[C@@H]2CCO2)c1-c1ncc(C(=O)O)o1 [Compound C-6, 2-(2-((4-((S)-2-(4-chloro-2-fluorophenyl)-2-methylbenzo[d][1,3]dioxol-4-yl)piperidin-1-yl)methyl)-4-ethyl-1-(((S)-oxetan-2-yl)methyl)-1H-imidazol-5-yl)oxazole-5-carboxylic acid] | 123 | 0.464
4 | CCc1nc(CN2CCC(c3cccc4c3O[C@@](C)(c3ccc(Cl)cc3F)O4)CC2)n(C[C@H]2CCO2)c1-c1ncc(C(=O)O)o1 [Compound C-8, 2-(2-((4-((S)-2-(4-chloro-2-fluorophenyl)-2-methylbenzo[d][1,3]dioxol-4-yl)piperidin-1-yl)methyl)-4-ethyl-1-(((R)-oxetan-2-yl)methyl)-1H-imidazol-5-yl)oxazole-5-carboxylic acid] | 101 | 0.353

The remaining lines, values ahead:

Row | Emax [%] | EC50 [nM] | SMILES
5 | 105 | 0.0428 | Cc1nc(CN2CCC(c3cccc4c3O[C@@](C)(c3ccc(C#N)cc3F)O4)CC2)n(C[C@@H]2CCO2)c1-c1nc(C(=O)O)c(C)o1 [Compound C-11, 2-(2-((4-((S)-2-(4-cyano-2-fluorophenyl)-2-methylbenzo[d][1,3]dioxol-4-yl)piperidin-1-yl)methyl)-4-methyl-1-(((S)-oxetan-2-yl)methyl)-1H-imidazol-5-yl)-5-methyloxazole-4-carboxylic acid]
6 | 103 | 0.112 | Cc1nc(-c2nc(CN3CCC(c4cccc5c4O[C@@](C)(c4ccc(Cl)cc4F)O5)CC3)n(C[C@@H]3CCO3)c2C)oc1C(=O)O [Compound C-15, 2-(2-((4-((S)-2-(4-chloro-2-fluorophenyl)-2-methylbenzo[d][1,3]dioxol-4-yl)piperidin-1-yl)methyl)-5-methyl-1-(((S)-oxetan-2-yl)methyl)-1H-imidazol-4-yl)-4-methyloxazole-5-carboxylic acid]
7 | 119 | 0.35 | Cc1nc(CN2CCC(c3cccc4c3O[C@@](C)(c3ccc(Cl)cc3F)O4)CC2)n(C[C@@H]2CCO2)c1-c1ccc(C(=O)O)o1 [Compound C-22, 5-(2-((4-((S)-2-(4-chloro-2-fluorophenyl)-2-methylbenzo[d][1,3]dioxol-4-yl)piperidin-1-yl)methyl)-4-methyl-1-(((S)-oxetan-2-yl)methyl)-1H-imidazol-5-yl)furan-2-carboxylic acid]
8 | 106 | – | Cc1c(-c2cncc(C(=O)O)c2)nc(CN2CCC(c3cccc4c3O[C@@](C)(c3ccc(Cl)cc3F)O4)CC2)n1C[C@@H]1CCO1 [Compound C-23, 5-(2-((4-((S)-2-(4-chloro-2-fluorophenyl)-2-methylbenzo[d][1,3]dioxol-4-yl)piperidin-1-yl)methyl)-5-methyl-1-(((S)-oxetan-2-yl)methyl)-1H-imidazol-4-yl)nicotinic acid]
